Data as given in US20150111860A1, “SUSPOEMULSION” (SUMITOMO CHEMICAL COMPANY, LIMITED, priority 2012, published 2015).
Read-outs that look alike come from different tables or passages of the source.

Assay: Solubility of ingredient (2) in 100 g of the oil phase (ingredient (1)) at 25° C. by HPLC
Assay type: physicochemical
Experimental: The solubility can be determined in the following manner. That is, an ingredient (2) is added to an ingredient (1), followed by mixing with stirring. After being left to stand in a constant temperature water bath at 25° C., the supernatant containing the ingredient (2) in a saturated state is isolated and filtered to obtain a solution, and then a prescribed amount of an internal standard fluid is added to prepare a sample liquid for analysis. Using the sample liquid for analysis, high-performance liquid chromatography is performed, thus enabling the measurement of the solubility.

[1] = oil phase composed of pyridalyl and Exxsol D110, 25° C.

solubility in 100 g of the oil phase [g]	SMILES	solubility in 100 g of the oil phase [1] [g]	solubility in 100 g of the oil phase (oil phase composed of esfenvalerate and Solvesso 150, 25° C.) [g]	solubility in 100 g of the oil phase (oil phase composed of tolclofos-methyl and Solvesso 150, 25° C.) [g]
	N#Cc1ccccc1NC(=O)c1snc(Cl)c1Cl [isotianil]	0.020		
0.003	CCNc1nc(CC)c(C(=O)NC(C#N)c2cccs2)s1 (stereo not drawn) [ethaboxam]			
	CN/C(=N\[N+](=O)[O-])NCc1cnc(Cl)s1 [clothianidin]	0.009	0.003	0.002
0.394	Cc1nn(C)c(Cl)c1C(=O)Nc1cccc2c1C(C)OC2(C)C (stereo not drawn) [furametpyr]			
